Experimental data as given in patent US8785491B2, “Pharmaceutical compositions and methods for treating age-related macular degeneration with melatonin analogues” (Takeda Pharmaceuticals U.S.A., Inc., priority 2008, dated 2014).
Where two headings read alike, the source gives them in different places.

What was measured:
N18-RE-105 hybrid cells = experiment: Effect against glutamate-induced cytotoxicity (LDH release)
Method: We used ramelteon and metabolite 1 (as synthesized in Example 1) in this study. Idebenone and vitamine E (α-tocopherol) were purchased from Wako Pure Chemical Industries (Osaka, Japan) and used as positive control. All other chemicals were purchased from standard sources.
For cytotoxicity studies, cells were plated in 96-well plates at a density of 5,000 cells per well in 0.1 ml of the above medium. After culturing for 24 hr, the medium was removed and replaced with medium containing 10 mM glutamate with or without various concentrations of compounds. After 24 hours of incubation, cytotoxicity was quantitated by the release of the cytosolic enzyme lactate dehydrogenase (LDH) into the culture medium. The percentage of cell viability in the presence of each of the test compounds was calculated from the following formula: % cell viability in the presence of compound={LDH activity (absorbance at 550 nm) in the culture medium with compound plus 10 mM glutamate−LDH activity in the control culture medium/LDH activity in the culture medium with 10 mM glutamate−LDH activity in the control culture medium}×100.

[1] = test system: age-related macular degeneration; conditions: 3 mg daily at bedtime for at least three months; cited from earlier work
[2] = test system: human retinal pigment epithelial (RPE) cells; conditions: added diurnally to RPE cell cultures for three consecutive days; cited from earlier work
[3] = test system: melatonin MT1/MT2 receptors; conditions: cited from earlier work

With `COC1=C(OC)C(=O)C(CCCCCCCCCCO)=C(C)C1=O` [Idebenone] the “effect on cytotoxicity induced by 10 mM glutamate / cell viability” value (“effect … by 10 mM glutamate / cell viability” for short) (N18-RE-105 hybrid cells) was “cell viability was increased”.
For `COc1ccc2[nH]cc(CCNC(C)=O)c2c1` [melatonin], the visual acuity [1] is listed as “remained stable”, the “effect … by 10 mM glutamate / cell viability” value (N18-RE-105 hybrid cells) is listed as “did not affect cell viability” and the “H2O2-induced cell death and mitochondrial DNA damage” value [2] is listed as “markedly reduced”.
In the case of `CCC(=O)NCC[C@@H]1CCc2cc(O)c3c(c21)CCO3` [metabolite 1, (S)—N-(2-[4-hydroxy-1,6,7,8-tetrahydro-2H-indeno[5,4-b]furan-8-yl]ethyl)propionamide], the “effect … by 10 mM glutamate / cell viability” value (N18-RE-105 hybrid cells) is reported as “inhibited”, the “cell death (absorbance, LDH) with varying amounts of compound” value (N18-RE-105 hybrid cells; 10 mM glutamate treated cell culture, increasing amount, FIG. 2) is reported as “cell death is reduced” and the “toxicity of glutamate over the basal viability” value (N18-RE-105 hybrid cells; highest concentration, 10 mM glutamate, FIGS. 1 and 2) is reported as “completely prevented”.
For `CCC(=O)NCC[C@@H]1CCc2ccc3c(c21)CCO3` [ramelteon, (S)—N-[2-(1,6,7,8-tetrahydro-2H-indeno[5,4-b]furan-8-yl)ethyl]propionamide], the “affinity for melatonin MT1/MT2 receptors” value [3] is listed as “high affinity” and the “effect … by 10 mM glutamate / cell viability” value (N18-RE-105 hybrid cells) is listed as “did not affect cell viability”.
With `Cc1c(C)c2c(c(C)c1O)CC[C@@](C)(CCC[C@H](C)CCC[C@H](C)CCCC(C)C)O2` [tocopherol, α-tocopherol] the “effect … by 10 mM glutamate / cell viability” value (N18-RE-105 hybrid cells; 10 mM glutamate, 24 hours incubation, LDH release, FIG. 1) was “cell viability was increased”.
